Test results published in patent US12285034B2, “Human and non-human animal use of microbial anaplerotic oil” (HELIAE DEVELOPMENT, LLC, priority 2017, dated 2025).
Read-outs that look alike come from different tables or passages of the source.

Assays:
[1] = test system: Aurantiochytrium acetophilum HS399; experiment: Model of intracellular (cytosolic) propionate, Henderson-Hasselbalch (Example 4)
Excerpt: In one implementation, the change in pH may be calculated with the following equation derived from the Henderson and Hasselbalch equation: […]

[2] = test system: Aurantiochytrium acetophilum HS399
Experimental: Respective Erlenmeyer flasks (250 mL) can be inoculated (1% v/v) in triplicates with a 24 hour (h) old culture of A. acetophilum HS399 and incubated in an orbital shaker at 180 rpm and 27° C.
In this implementation, the respective Erlenmeyer flasks contain 100 mL of a medium supplemented with (g/L): dextrose (50), ammonium acetate (2.3), NaCl (12.5), MgSO4 7H2O (2.5), KH2PO4 (0.5), KCl (0.5) and CaCl2 (0.1). This medium also contains trace element solution (5 ml/L) and vitamin solution (1 ml/L). The trace element solution contains (g/L): EDTA di-sodium salt (6), FeCl3 6H2O (0.29), […] (6.84), MnCl2 4H2O (0.86), ZnCl2 (0.06), CoCl2 6H2O (0.026), NiSO4 6H2O (0.052), CuSO4 5H2O (0.002), Na2MoO4H2O (0.005). The vitamin solution contains (mg/L): thiamine (100), biotin (0.5) and cyanocobalamin (0.5). All culture materials can be autoclaved (121° C., 15 min) and media can be filter sterilized before use. […] Daily samples can be collected to analyze the cell dry weight, residual glucose, culture pH, lipid and fatty acid composition of the cultures. Cell dry weights are analyzed by vacuum filtration (0.2 μm) and washed with a solution of ammonium bicarbonate. Residual glucose is analyzed using a colorimetric method based on glucose […] activity. Biomass for lipid analysis can be centrifuged and washed using purified water. The washed biomass can be freeze dried. Total lipids are analyzed using the Folch method (AOAC 996.06) and the FAMES are analyzed by gas chromatography using nonadecanoic (C19:0) acid as an internal standard.

[3] = test system: Yarrowia lipolytica ATCC18944; assay type: cell-based; conditions: for Total Fatty Acids / Total Lipids: 168 h
Experimental: Culture conditions. In one implementation, Yarrowia lipolytica ATCC18944 can be cultivated in triplicates (n=3) in a medium containing (g/L): glycerol (80), monosodium […]), yeast extract (1), NaCl (12.5), MgSO4 (7), H2O (2.5), KCl (0.5), CaCl2 (0.1), KH2PO4 (0.5), trace metal solution (5 mL) and vitamin solution (1 mL). The trace element solution may contain (g/L): […] The vitamin solution can be filter-sterilized (e.g., using 0.2 μm pore size filter) containing (mg L-1): thiamine (100), biotin (0.5) and cyanocobalamin (0.5) unless otherwise stated. In some implementations cyanocobalamin might be added to or subtracted from the medium formulation to change or impact propionic acid deposition in OCFA. […] In one implementation, a concentration of the cyanocobalamin and/or cobalt in the culture medium can be below 0.4 μM. […] The flasks can be incubated in the dark in an orbital shaker at 180 rpm, 27° C. In this implementation, sodium propionate is fed batch every day according to respective treatments. […] Analyses. Cell dry weights can be obtained by drying samples that are previously vacuum filtrated (e.g., using 0.2 μm pore size filters). Residual propionate is analyzed directly by high performance liquid chromatography (HPLC). Lipids and total fatty acids are analyzed using a direct extraction, transesterification followed by gas chromatography (GC) and detection by flame ionization (FID). The different fatty acids are identified and quantified using appropriate internal and external standards. Propionic acid deposition rate.

[4] = test system: Aurantiochytrium acetophilum HS399; assay type: cell-based
Excerpt: In another implementation, a New Brunswick 10 L Bioflo Pro 300 fermenter (Eppendorf) can be used to provide an improvement in the productivity of OCFAs accumulation, previously identified in flasks and bubble columns. In this implementation, a bioprocess can be devised to incorporate one or more portions of one or more techniques described herein. […] As an example, in this implementation, the pH-auxostat is operated at a pH set point of 6.5 to mitigate propionic toxicity. […] A control treatment can be provided […] propionate, to be used as comparison. […] The fermenters are aerated at 0.5 vvm and are maintained at 27° C. under axenic conditions. […] This medium can also contain a trace element solution (25 ml/L) and vitamin solution (5 ml/L). The trace element solution contains (g/L): […] In this example, the fermenter is fed another 5-6 L of a medium containing (g/L): ammonium phosphate (2.5), ammonium hydroxide (29% pure) (15.2), corn syrup DE95 (1143). This medium can also contain a trace element solution (25 ml/L) and a vitamin solution (5 ml/L). In this example, this medium is fed in a DO-stat mode in response to dissolved oxygen values detected above 15% saturation. […] The pH is maintained at 5.8 using NaOH, while the batch ammonia is consumed. The pH can drift to higher values when the residual ammonia is substantially exhausted from the fermenter. […] Culture materials and media can be autoclaved (e.g., 121° C., 15 min) while separating the nitrogen and the carbon source. Foam can be controlled (e.g., automatically) through the addition of (<1 ml/L) Hodag antifoam. […] Residual glucose can be analyzed from culture supernatant (e.g., 5000 g; 5 min) using a colorimetric method based on glucose […] activity. Residual acetate and propionate can be analyzed by HPLC using an acceptable external standard.

[5] = daily propionate 0+0+1+1+1+1 g/L
[6] = daily propionate 0+0+2+2+2+2 g/L
[7] = 192 h, itaconic acid 0 / propionate 6 g/L

CCC(=O)O [Propionate, propionic acid]
intracellular propionate concentration ([1]; from 1 g/L, pH 7 (growth inhibitory)): 1 g/L
intracellular propionate concentration ([1]; from ~15 g/L residual, pH 6 (lethal)): 176 g/L
lethal threshold, Cytosolic Propionate ([1]; initial propionate 20 g/L, pH 6.4): 97.7 g/L
D1-D4 Average Internal Propionic Acid (Theoretical Values) ([1]; pH 5 set point): 56.70 g/L
D1-D4 Average Internal Propionic Acid (Theoretical Values) ([1]; pH 6 set point): 4.18 g/L
D1-D4 Average Internal Propionic Acid (Theoretical Values) ([1]; pH 7 set point): 0.13 g/L
lethal threshold, Cytosolic Propionate ([1]; pH drift approach, pH 5.3, 2.3 g/L, listed as Propionic acid): 107.5 ± 3.5 g/L
lethal threshold, Cytosolic Propionate ([1]; pH drift approach, pH 5.3, 2.3 g/L, listed as propionate): 107.5 g/L
OCFA Productivity [2]: 0.81 ± 0.06 g/L/day
concentration strongly inhibitory to growth [2]: 10000 µg/mL
growth inhibitory concentration [2]: 3 g/L
substantially lethal residual (extracellular) concentration ([2]; pH of 6): ~15 g/L
OCFA ([2]; propionate 10 g/L, 68 h): 63.1 ± 0.7 % TFA
Total Fatty Acids ([2]; propionate 10 g/L, 68 h): 42.8 ± 0.9 % DW
Total Lipids ([2]; propionate 10 g/L, 68 h): 55.3 ± 0.6 % DW
OCFA ([2]; propionate 10 g/L, 68 h, listed as propionate): 63 % TFA
Propionate deposition ([2]; propionate printed 1100 g/L): 6.9 ± 0.5%
daily propionic feed not affecting growth [3]: up to 2 g/L d
Total Fatty Acids [3, 5]: 17.3 ± 1.6 % DW
Total Lipids [3, 5]: 19.0 ± 0.0 % DW
Total Fatty Acids [3, 6]: 16.2 ± 0.5 % DW
Total Lipids [3, 6]: 18.3 ± 0.6 % DW
Total Fatty Acids ([3]; daily propionate 0 + 0.6 g/L): 21.3 ± 2.8 % DW
Total Lipids ([3]; daily propionate 0 + 0.6 g/L): 21.7 ± 3.2 % DW
Total Fatty Acids ([3]; daily propionate 0.3 + 0.3 g/L): 21.7 ± 2.5 % DW
Total Lipids ([3]; daily propionate 0.3 + 0.3 g/L): 23.7 ± 3.5 % DW
Cell dry weight [3, 7]: 8.3 ± 1.2 g/L
Consumed propionate [3, 7]: 5.1 ± 1.5 g/L
Odd chain fatty acids [3, 7]: 1.3 ± 0.5 % DW
Propionic acid deposition [3, 7]: 0.6 ± 0.1%
growth on propionate as sole carbon source ([3]; FIG. 25): able to grow
Consumed propionate ([3]; cyanocobalamin 0 μM): 2.6 g/L
Propionate deposition ([3]; cyanocobalamin 0 μM): 0.99%
Consumed propionate ([3]; cyanocobalamin 0.00037 μM): 1.7 g/L
Propionate deposition ([3]; cyanocobalamin 0.00037 μM): 0.83%
Cell dry weight ([3]; propionate 0+0+2+2+2+2 g/L d, cyanocobalamin 0 μM): 6.0 g/L
Cell dry weight ([3]; propionate 0+0+2+2+2+2 g/L d, cyanocobalamin 0.00037 μM): 5.3 g/L
propionic acid deposition rates in OCFAs ([3]; relatively low): < 3 % TFA
OCFAs ([3]; total propionate fed batch 8 g/L): 0.33 g/L
effect on growth [4]: slightly inhibited
OCFAs ([4]; propionic acid titration): 60 % TFA
accumulated lipids ([4]; propionic acid titration): 70 % DW
average cumulative productivities ([4]; propionic acid titration): approximately 30 g/L/d
productivity of OCFAs ([4]; propionic acid titration): 10 g/L/day
Cell dry weight ([4]; propionic acid titration, 10 L fermenter): 170 g/L
consumption of propionic per gram of biomass ([4]; total consumed during process): 0.155 g
